Where a SMILES comes first, the peptide text is derived from it. [ ]: non-standard residue; d: D form. The star is where a group is joined. NHCH2CH2OH = OCCN*; For = O=C*
What was measured:
[1] = tested on: P388 mouse leukemia cells; settings: 92 h
In short: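 Peptide stocks diluted 250× in growth medium; P388 cells 1 × 10^4 cells/mL final; 37 °C, 5% CO2, 92 h. WST-1 + 1-methoxy PMS, 4 h, A415. Output: % viability.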

[2] = H+/Na+ transport assay of bead-derived peptides (one-point); format: biochemical; set-up: key: relative activity; mean of two control wells = 1.00; settings: bead-derived peptide solution, EYPC/EYPG LUVs;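 further: relative to parent gramicidin A activity set to 1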
In short: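 H+/Na+ transport is monitored through pyranine fluorescence in freshly extruded LUVs after a 30-min room-temperature vortex with each library peptide at a single concentration. Signals are normalized to detergent (Triton X-100) and untreated controls.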

[3] = tested on: Streptococcus pyogenes SSI-9; assay: Antibacterial activity assay of bead-derived peptides (three concentrations); format: cell-based; set-up: key: +++: inhibition by the 640-fold diluted peptide solution; ++: inhibition by the 160-fold diluted solution; +: inhibition by the 40-fold diluted solution; -: no inhibition; settings: S. pyogenes, bead-derived peptide solution, three concentrations
In short: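 First, each peptide stock was diluted 4- and 16-fold in DMSO; next, the three solutions were mixed with S. pyogenes SSI-9 suspension (2 × 10^5 CFU) in cation-adjusted Mueller Hinton Broth plus 5% laked horse blood; finally, plates stood 18 h at 37 °C before checking for grown-cell precipitation.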

| Compound | cell viability/% [1] [%] | H+/Na+ transport activity normalized against the value of 1 (1.00) [2] | antibacterial activity [3] |
| --- | --- | --- | --- |
| CC(C)C[C@@H](NC(=O)[C@H](Cc1c[nH]c2ccccc12)NC(=O)[C@H](NC(=O)[C@H](Cc1c[nH]c2ccccc12)NC(=O)[C@@H](CC(C)C)NC(=O)[C@@H](NC(=O)[C@H](NC(=O)[C@H](C)NC(=O)[C@H](NC(=O)[C@H](C)NC(=O)CNC(=O)[C@@H](NC=O)C(C)C)[C@H](C)O)C(C)C)C(C)C)C(C)C)C(=O)N[C@@H](Cc1c[nH]c2ccccc12)C(=O)N[C@@H](C(=O)N[C@@H](Cc1c[nH]c2ccccc12)C(=O)NCCO)C(C)C [compound 6116] (For-VGA[dT]A[dV]V[dL]W[dV]W[dL]W[dV]W-NHCH2CH2OH) | 93.5 | 1.13 | - |
| CC(C)C[C@@H](NC(=O)[C@H](C)NC(=O)[C@H](NC(=O)[C@H](C)NC(=O)CNC(=O)[C@@H](NC=O)C(C)C)C(C)C)C(=O)N[C@H](C(=O)N[C@H](CC(C)C)C(=O)N[C@@H](Cc1c[nH]c2ccccc12)C(=O)N[C@H](CC(C)C)C(=O)N[C@@H](Cc1c[nH]c2ccccc12)C(=O)N[C@@H](C(=O)N[C@@H](Cc1c[nH]c2ccccc12)C(=O)N[C@@H](C(=O)N[C@@H](Cc1c[nH]c2ccccc12)C(=O)NCCO)[C@H](C)O)C(C)C)C(C)C [compound 6943] (For-VGA[dV]A[dL]V[dL]W[dL]W[dV]W[dT]W-NHCH2CH2OH) | 100.0 | 1.02 | - |
| CC(C)C[C@@H](NC(=O)[C@H](Cc1c[nH]c2ccccc12)NC(=O)[C@H](NC(=O)[C@@H](NC(=O)[C@H](NC(=O)[C@H](C)NC(=O)[C@H](NC(=O)[C@H](C)NC(=O)CNC(=O)[C@@H](NC=O)C(C)C)[C@H](C)O)C(C)C)C(C)C)C(C)C)C(=O)N[C@@H](Cc1c[nH]c2ccccc12)C(=O)N[C@H](CC(C)C)C(=O)N[C@@H](Cc1c[nH]c2ccccc12)C(=O)N[C@@H](C(=O)N[C@@H](Cc1c[nH]c2ccccc12)C(=O)NCCO)C(C)C [compound 6843] (For-VGA[dT]A[dV]V[dV]W[dL]W[dL]W[dV]W-NHCH2CH2OH) | 100.0 | 1.15 | - |
| CC(C)C[C@@H](NC(=O)[C@@H](NC(=O)[C@H](NC(=O)[C@H](C)NC(=O)[C@H](NC(=O)[C@H](C)NC(=O)CNC(=O)[C@@H](NC=O)C(C)C)[C@H](C)O)C(C)C)C(C)C)C(=O)N[C@@H](Cc1c[nH]c2ccccc12)C(=O)N[C@@H](C(=O)N[C@@H](Cc1c[nH]c2ccccc12)C(=O)N[C@@H](C(=O)N[C@@H](Cc1c[nH]c2ccccc12)C(=O)N[C@@H](C(=O)N[C@@H](Cc1c[nH]c2ccccc12)C(=O)NCCO)C(C)C)C(C)C)C(C)C [compound 9799] (For-VGA[dT]A[dV]V[dL]W[dV]W[dV]W[dV]W-NHCH2CH2OH) | 100.0 | 1.26 | - |
| CNC(=O)C[C@@H](NC(=O)[C@@H](NC(=O)[C@@H](CC(C)C)NC(=O)[C@H](C)NC(=O)[C@@H](CC(C)C)NC(=O)[C@H](C)NC(=O)CNC(=O)[C@@H](NC=O)C(C)C)C(C)C)C(=O)N[C@@H](Cc1c[nH]c2ccccc12)C(=O)N[C@H](CC(C)C)C(=O)N[C@@H](Cc1c[nH]c2ccccc12)C(=O)N[C@H](CC(C)C)C(=O)N[C@@H](Cc1c[nH]c2ccccc12)C(=O)N[C@H](CC(C)C)C(=O)N[C@@H](Cc1c[nH]c2ccccc12)C(=O)NCCO [compound 1400] (For-VGA[dL]A[dL]V[dD](NHMe)W[dL]W[dL]W[dL]W-NHCH2CH2OH) | 72.7 | 1.10 | - |
| CC(C)C[C@@H](NC(=O)[C@H](C)NC(=O)CNC(=O)[C@@H](NC=O)C(C)C)C(=O)N[C@@H](C)C(=O)N[C@H](CC(C)C)C(=O)N[C@H](C(=O)N[C@H](CC(C)C)C(=O)N[C@@H](Cc1c[nH]c2ccccc12)C(=O)N[C@@H](C(=O)N[C@@H](Cc1c[nH]c2ccccc12)C(=O)N[C@H](CC(C)C)C(=O)N[C@@H](Cc1c[nH]c2ccccc12)C(=O)N[C@H](CC(C)C)C(=O)N[C@@H](Cc1c[nH]c2ccccc12)C(=O)NCCO)[C@H](C)O)C(C)C [compound 7211] (For-VGA[dL]A[dL]V[dL]W[dT]W[dL]W[dL]W-NHCH2CH2OH) | 100.0 | 1.03 | - |
| CC(C)C[C@@H](NC(=O)[C@H](C)NC(=O)[C@H](NC(=O)[C@H](C)NC(=O)CNC(=O)[C@@H](NC=O)C(C)C)C(C)C)C(=O)N[C@H](C(=O)N[C@@H](C(=O)N[C@@H](Cc1c[nH]c2ccccc12)C(=O)N[C@@H](C(=O)N[C@@H](Cc1c[nH]c2ccccc12)C(=O)N[C@H](CC(C)C)C(=O)N[C@@H](Cc1c[nH]c2ccccc12)C(=O)N[C@@H](C(=O)N[C@@H](Cc1c[nH]c2ccccc12)C(=O)NCCO)C(C)C)C(C)C)[C@H](C)O)C(C)C [compound 7131] (For-VGA[dV]A[dL]V[dT]W[dV]W[dL]W[dV]W-NHCH2CH2OH) | 100.0 | 1.08 | - |
| CNC(=O)C[C@@H](NC(=O)[C@H](Cc1c[nH]c2ccccc12)NC(=O)[C@@H](CC(C)C)NC(=O)[C@@H](NC(=O)[C@@H](CC(C)C)NC(=O)[C@H](C)NC(=O)[C@H](NC(=O)[C@H](C)NC(=O)CNC(=O)[C@@H](NC=O)C(C)C)C(C)C)C(C)C)C(=O)N[C@@H](Cc1c[nH]c2ccccc12)C(=O)N[C@@H](C(=O)N[C@@H](Cc1c[nH]c2ccccc12)C(=O)N[C@@H](C(=O)N[C@@H](Cc1c[nH]c2ccccc12)C(=O)NCCO)C(C)C)C(C)C [compound 3144] (For-VGA[dV]A[dL]V[dL]W[dD](NHMe)W[dV]W[dV]W-NHCH2CH2OH) | 100.0 | 1.01 | - |
| CNC(=O)C[C@@H](NC(=O)[C@@H](NC(=O)[C@@H](CC(C)C)NC(=O)[C@H](C)NC(=O)[C@H](NC(=O)[C@H](C)NC(=O)CNC(=O)[C@@H](NC=O)C(C)C)C(C)C)C(C)C)C(=O)N[C@@H](Cc1c[nH]c2ccccc12)C(=O)N[C@@H](C(=O)N[C@@H](Cc1c[nH]c2ccccc12)C(=O)N[C@@H](C(=O)N[C@@H](Cc1c[nH]c2ccccc12)C(=O)N[C@@H](C(=O)N[C@@H](Cc1c[nH]c2ccccc12)C(=O)NCCO)C(C)C)C(C)C)C(C)C [compound 8662] (For-VGA[dV]A[dL]V[dD](NHMe)W[dV]W[dV]W[dV]W-NHCH2CH2OH) | 61.0 | 1.08 | - |
| CNC(=O)C[C@@H](NC(=O)[C@@H](NC(=O)[C@@H](CC(C)C)NC(=O)[C@H](C)NC(=O)[C@H](NC(=O)[C@H](C)NC(=O)CNC(=O)[C@@H](NC=O)C(C)C)C(C)C)C(C)C)C(=O)N[C@@H](Cc1c[nH]c2ccccc12)C(=O)N[C@H](CC(C)C)C(=O)N[C@@H](Cc1c[nH]c2ccccc12)C(=O)N[C@@H](C(=O)N[C@@H](Cc1c[nH]c2ccccc12)C(=O)N[C@H](CC(C)C)C(=O)N[C@@H](Cc1c[nH]c2ccccc12)C(=O)NCCO)C(C)C [compound 12687] (For-VGA[dV]A[dL]V[dD](NHMe)W[dL]W[dV]W[dL]W-NHCH2CH2OH) | 100.0 | 1.29 | - |
